In EP2608770B1, “INHALABLE GASEOUS DRUG CONTAINING KRYPTON FOR TREATING NEURO-INTOXICATION” (L'Air Liquide Société Anonyme pour l'Etude et …, priority 2010, dated 2012):

Tested on: U2OS
Assay: Cell death and apoptosis in U2OS cells exposed to cytotoxic agents (staurosporine, rotenone, antimycin A, menadione, mitoxantrone) under a krypton atmosphere, read by automated fluorescence microscopy
Assay type: cell-based
Settings: cells kept in an atmosphere formed of krypton, measured after 6 and 16 hours of incubation
Text: Des essais ont été réalisés pour démontrer que le krypton présente un effet protecteur cérébral de par sa capacité à protéger la cellule du phénomène de la mort cellulaire programmée ou apoptose, qui est la conséquence ultime des neuro-intoxications telles que décrites dans le syndrome d'ischémie-reperfusion, d'addictions... […]
Les cellules ont été ensuite analysées dans un automate BD Pathway Fluorescence Microscope afin de déterminer les paramètres suivants : • apoptose cellulaire définit par GFP-H2B ou DAPI-condensation chromatine mesurable), • autophagie définit par GFP-LC3 puncta, • nécrose définit par l'exsudation de HMGB1 du noyau, • aberrations mitotiques définit par GFP-H2B et Red-Centrin, • niveau de stress ER définit par GFP-G3B puncta, • cycle cellulaire définit par l'incorporation de […] dans les cellules en phase S, ainsi que l'analyse du DNA. […]

## [Kr] [krypton]
  capacités fonctionnelles et intégrité physiques des cellules: conservent leurs capacités fonctionnelles ainsi que leur intégrité physiques
Apoptosis defined by GFP-H2B or DAPI chromatin condensation
  signes d'apoptose cellulaire: diminue les signes d'apoptose cellulaire
